Assay results reported in patent publication US8993626B2, “Methods of treatment using sterculic acid” (The United States of America, as represented by the …, priority 2010, dated 2015).

Experiments:
ARPE-19 cells = assay: Fatty acids against 7KCh-mediated cell death (CCK8); assay type: cell-based
Method: FIGS. 12A-12C depict ARPE-19 cell viability in response to 12 μM 7KCh with or without 0.1-5 μM (A) sterculic acid and (B) stearic acid after 24 hr treatments. Error bars indicate the standard deviations. n=3-5. Two-tailed Student's t-test. (C) Representative images of changes in cell morphology in response to 12 μM 7KCh with or without 1 μM sterculic acid and stearic acid after 24 hr treatments.
ARPE-19 cells were seeded in 24-well plates with 1×10^5 cells per well and allowed to recover for 16-24 hr. Once confluency reached approximately 90%, the effect of the fatty acids against 7KCh-mediated cell death was examined 24 hr after incubation in serum-free medium with 12 μM 7KCh. Fatty acids were tested at 0.1, 0.5, 1, 5 and 10 μM concentrations. The effects of the fatty acids against 7KCh-mediated inflammation and ER stress were examined by incubating cells in 1 μM fatty acids with either 8 μM 7KCh (24 hr for quantitative real-time PCR (qRT-PCR), 24 and 48 hr for immunoblot), or 6 μM 7KCh for 48 hr (for ELISA). Three individual experiments were performed for each treatment with quadruplicate measurements performed for each experiment in 24-well plates.
The cell viability was determined by the dehydrogenase activity of the ARPE-19 cells using Cell Counting Kit-8 (CCK8, Dojindo, Gaithersburg, Md.) according to manufacturer's protocol.
The lowest effective concentrations of fatty acids that offset the 7KCh-mediated cell death were determined. […] Table 3 lists the lowest concentrations of these fatty acids required to maintain full cell viability against 12 μM 7KCh treatment. All unsaturated fatty acids protected against 7KCh-induced cell death. […] DHA, α-linolenic, and linoleic acid prevented 7KCh-mediated cell death at 5 μM but the rest of unsaturated fatty acids and dihydrosterculic acid required 10 μM to be protective.

HUVEC [1] = assay: Cell migration (chemotaxis) assay, Boyden chamber, VEGF as chemoattractant; assay type: cell-based
Method: Cell migration was assessed using the 48-well Boyden chamber and 8 μm pore size collagen-coated (10 μg/ml rat tail collagen; Collaborative Laboratories) polycarbonate filters (Osmonics, Inc). The bottom chamber wells received 29 μl of DMEM medium alone (baseline) or medium containing chemoattractant (VEGF). The top chambers received 45 μl of HUVEC cell suspension (1×10^6 cells/ml) prepared in DMEM+1% BSA with or without sterculic acid. After 5 h incubation at 37° C., the membrane was rinsed in PBS, fixed and stained Diff-Quick solutions. The filter was placed on a glass slide with the migrated cells facing down and cell on top were removed using Kimwipe. The testing was performed in 4 replicates and five fields were counted from each well. The data was plotted as mean migrated cells±SD. IC50 was calculated from the plotted data.

ARPE19 cells = assay: Microelectronic cell sensor assay (RT-CES), 7KCh-induced cytotoxicity; conditions: 1 μM fatty acid + 15 μM 7KCh, serum free media
Method: 4×10^4 cells were seeded onto wells of 16× microtiter plates. […] Cell viability was determined as a cell index (CI) calculated from the impedance of each well automatically by the RT-CES system once per hr until the end of the experiment. The data was normalized at the point immediately prior to compound treatment.
RT-CES® System is a cell-based assay system that monitors cellular events by measuring the electronic impedance of sensor electrodes integrated on the bottom of microtiter E-Plates. The presence of the cells will lead to an increase in the electrode impedance. The more cells attached to the sensor, the higher the impedance that could be monitored with RT-CES.
1) Cells were cultivated in the ACEA's 16X E-plate device containing microelectrodes at the bottom of each well to measure contact area and electrical properties of adherent cells. […]
4) Cell growth was monitored periodically (every 1 hr) for indicated durations via calculation of a “cell index” (reflect to the surface area covered by the cells) in each well. […]
6) The sensor devices were put into the incubator again and the cells were continuously monitored cellular status changes.
7) Cell viability was determined as a cell index (CI) calculated from the impedance of each well automatically by the RT-CES system once per hr until the end of the experiment. […]

Leukemia, HL-60 (TB) = assay: NCI in vitro anti-cancer cell line screen (SRB); assay type: cell-based; conditions: Homo sapiens, 48 h
HUVEC [2] = assay: Cord formation assay on Matrigel; assay type: cell-based; conditions: data not shown
[3] = test system: Human retinal pigment epithelial (RPE) cells (ARPE-19); assay: Microarray-based gene expression analysis of sterculic acid treated RPE cells; assay type: cell-based; conditions: 10 μM sterculic acid, 72 h
Method: Human retinal pigment epithelial (RPE) cells (ARPE-19) obtained from ATCC (Manassas, Va.) were grown in Dulbecco's Modified Eagle's Medium (DMEM) containing nutrient mixture F12 (Cellgro, Va.) supplemented with 5% fetal bovine serum, penicillin (100 U/ml) and streptomycin (100 μg/ml). Cells were seeded at a density of 2×10^5 cells/ml in complete medium and allowed to grow overnight. The culture medium was replaced next day with fresh medium before treating with 10 μM of sterculic acid dissolved in DMSO. The controls received the same amount of DMSO. After 72 h, total RNA, 100 ng, was amplified according to Affymetrix's small sample protocol, and 20 μg of cRNA was then hybridized on each NEI GeneChip microarray. After hybridization, GeneChip array was washed, stained with streptavidin-PE (Molecular Probes), amplified with biotinylated anti-streptavidin antibody and scanned with an argon ion Confocal Laser at 570 nm (Affymetrix). Affymetrix GeneChip Operating software was used for absolute expression and to normalize the gene expression levels between any two samples. Data were then incorporated into GeneSpring software 7.2 ([…]) for chip normalization, filtering and cluster analysis.

[4] = test system: Breast Cancer, NCI/ADR-RES; assay: NCI in vitro anti-cancer cell line screen (SRB); conditions: Homo sapiens, 48 h
Method: (§1) The human tumor cell lines used in the cancer screen panel were grown in RPMI 1640 medium containing 5% FBS and 2 mM L-glutamine. The cells were inoculated into 96-well microtiter plates in 100 μl at plating density ranging from 5000 to 40,000 cell/well. […] Following drug addition, the plates were incubated for an additional 48 h. The assay was terminated by the addition of cold 10% TCA. The supernatant was discarded, and the plates were washed five times with water and air dried. Sulforhodamine B (SRB) solution (100 μl) at 0.4% (w/v) in 1% acetic acid was added to each well, and plates were incubated for 10 min at room temperature. After staining, unbound dye was removed by washing five times with 1% acetic acid and the plates were air dried. Bound stain was subsequently solubilized with 10 mM trizma base, and the absorbance was read on an automated plate reader at a wavelength of 515 nm.
(§2) A sulforhodamine B (SRB) end point was used to calculate the median growth inhibition (GI50). GI50 refers to the concentration at which the drug inhibits tumor cell growth by 50%.

Colon Cancer, HCC-2998 = assay: NCI in vitro anti-cancer cell line screen (SRB); conditions: Homo sapiens, HCC 2998, 48 h
Method: as §1, §2

[5] = test system: bFGF-induced angiogenesis; assay: Chick chorioallantonic membrane (CAM) assay; assay type: in vivo; conditions: for decrease in blood vessels induced by bFGF: bFGF 5 ng/ml, 72 h
Method: Results shown are reported as the reduction in angiogenic stimulation (vessels counted) compared to untreated controls. A, bFGF (5 ng/ml); B, bFGF (5 ng/ml)+5 μl DMSO; C, bFGF (5 ng/ml)+5 μl DMSO containing 1 μg/ml sterculic acid; D, bFGF (5 ng/ml)+5 μl DMSO containing 10 μg/ml sterculic acid.
Fertilized chick embryos, 9-day old, were maintained in a 48 place table top egg incubator at 37° C. in a specific humidity of 60%. After swabbing the egg shell with 70% alcohol, a small window was cut through the egg shell close to the inner shell surface where the prominent blood vessels are located using a hobby grinding wheel (Dremel Emerson Electric Co., Racine, Wis.). A filter disc saturated with bFGF (5 ng/ml) was placed on the CAM. Sterculic acid dissolved in dimethyl sulfoxide (DMSO) at various concentrations was added to the disc daily over 3-day period of incubation. The controls received the same amount of DMSO. After 72 h the disc and surrounding CAM were excised, inverted and examined under a high power dissecting microscope. The result was reported as reduction in angiogenic stimulation (vessels counted) compared to untreated controls.

Q: For CCCCCCCCC1=C(CCCCCCCC(=O)O)C1 [sterculic acid, 8-(2-octacyclopropen-1-yl)octanoic acid], which “cell viability at 0.5 μM” value (ARPE-19 cells; 0.5 μM + 12 μM 7KCh, 24 hr) is on record?
A: significantly increased cell viability

Q: What about the “morphological effects on the cells (images)” value (ARPE-19 cells; 1 μM + 12 μM 7KCh, 24 hr, FIG. 12C) of the same molecule?
A: effectively protect

Q: And the “CONC. (μM): lowest concentration required to maintain full cell viability against 7KCh” value (ARPE-19 cells; 12 μM 7KCh for 24 hr, tested 0.1, 0.5, 1, 5 and 10 μM)?
A: 1 µM

Q: And the “protective effect against 7KCh-mediated cell death” value (ARPE-19 cells; 12 μM 7KCh, 24 hr, 0.1-10 μM fatty acid)?
A: by far the most effective compound

Q: And the “cell toxicity at migration-inhibiting concentration” value (HUVEC [1])?
A: without showing significant cell toxicity

Q: What about the “concentration that significantly inhibited VEGF-induced endothelial cell migration” value (HUVEC [1]; 5 h) of the same molecule?
A: Less than 100 μM

Q: And the “protection from 7KCh induced cytotoxicity (cell index)” value (ARPE19 cells)?
A: markedly protected

Q: And the GI50 (Leukemia, HL-60 (TB))?
A: 10 µM

Q: What about the “viability of HUVEC at concentrations required to inhibit cord formation” value (HUVEC [2]) of the same molecule?
A: did not affect their viability

Q: And the “Fold Change, ALDH3A1, down-regulated” value [3]?
A: 7 fold

Q: And the “Fold Change, ALDH7A1, up-regulated” value [3]?
A: 15 fold

Q: What about the “Fold Change, ATF4, down-regulated” value [3] of the same molecule?
A: 7 fold

Q: What about the “Fold Change, BMP7, up-regulated” value [3] of the same molecule?
A: 6 fold

Q: And the “Fold Change, CRABP1, down-regulated” value [3]?
A: 8 fold

Q: And the “Fold Change, CTSC, up-regulated” value [3]?
A: 9 fold

Q: And the “Fold Change, FNTA, up-regulated” value [3]?
A: 4 fold

Q: And the “Fold Change, GADD45B, down-regulated” value [3]?
A: 7 fold

Q: And the “Fold Change, GOT2, up-regulated” value [3]?
A: 5 fold

Q: What about the “Fold Change, HSPCA, up-regulated” value [3] of the same molecule?
A: 11 fold

Q: And the “Fold Change, HYOU1, down-regulated” value [3]?
A: 10 fold

Q: And the “Fold Change, IGFBP3, down-regulated” value [3]?
A: 3 fold

Q: What about the “Fold Change, MMP2, down-regulated” value [3] of the same molecule?
A: 7 fold

Q: What about the “Fold Change, MT1H, down-regulated” value [3] of the same molecule?
A: 8 fold

Q: And the “Fold Change, PALLD, up-regulated” value [3]?
A: 5 fold

Q: And the “Fold Change, SCEL, up-regulated” value [3]?
A: 5 fold

Q: And the “Fold Change, SOD1, up-regulated” value [3]?
A: 5 fold

Q: What about the “Fold Change, SUOX, up-regulated” value [3] of the same molecule?
A: 3 fold

Q: And the “Fold Change, VBP1, up-regulated” value [3]?
A: 5 fold

Q: What about the GI50 [4] of the same molecule?
A: 10 µM

Q: And the GI50 (Colon Cancer, HCC-2998)?
A: 10 µM

Q: And the “decrease in blood vessels induced by bFGF” value ([5]; 1 μg/ml sterculic acid in DMSO daily)?
A: Significant decrease

Q: And the “decrease in blood vessels induced by bFGF” value ([5]; 10 μg/ml sterculic acid in DMSO daily)?
A: more than 3 fold

Q: And the “value observed in the CAM assay” value ([5]; compared with the HUVEC IC50)?
A: 10 µM
